The target in series [1] is T1, enzyme FAAH (Fatty Acid Amide Hydrolase) (Mus musculus, UniProt O08914).
T1 construct: The membrane homogenates are prepared extemporaneously by homogenizing the tissues; from tissue; host or cells: mouse brain minus cerebellum, membrane/brain homogenate
T1 sequence (O08914 1-579): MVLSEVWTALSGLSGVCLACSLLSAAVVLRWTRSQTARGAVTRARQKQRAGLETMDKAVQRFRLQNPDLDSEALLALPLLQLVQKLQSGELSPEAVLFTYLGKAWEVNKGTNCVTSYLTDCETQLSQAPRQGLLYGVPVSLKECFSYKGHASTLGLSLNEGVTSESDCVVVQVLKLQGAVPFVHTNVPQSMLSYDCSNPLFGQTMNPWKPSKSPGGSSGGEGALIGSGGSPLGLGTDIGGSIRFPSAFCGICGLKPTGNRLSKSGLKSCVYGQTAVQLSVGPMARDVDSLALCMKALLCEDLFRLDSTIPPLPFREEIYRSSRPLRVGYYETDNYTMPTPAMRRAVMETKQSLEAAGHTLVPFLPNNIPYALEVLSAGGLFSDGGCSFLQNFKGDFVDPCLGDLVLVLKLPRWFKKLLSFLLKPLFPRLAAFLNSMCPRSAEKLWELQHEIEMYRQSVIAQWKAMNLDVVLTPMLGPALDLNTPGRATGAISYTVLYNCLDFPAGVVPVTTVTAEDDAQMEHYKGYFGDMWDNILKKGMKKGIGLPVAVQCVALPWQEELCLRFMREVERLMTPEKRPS
The experiment in a line: FAAH radioenzymatic test, hydrolysis of anandamide [ethanolamine 1-3H] (protocol 1). The series is classed as biochemical. Conditions: mouse brain membrane homogenate, anandamide 10 μM, 20 min preincubation at 25° C., read-out: IC50 (concentration that inhibits 50% of the control enzymatic activity of FAAH). The method, then: (§1) The compounds of the invention underwent pharmacological tests to determine their inhibitory effect on the enzyme FAAH (Fatty Acid Amide Hydrolase).
Thus, mouse brains (minus the cerebellum) are removed and stored at −80° C. The membrane homogenates are prepared extemporaneously by homogenizing the tissues using a Precellys® machine in reaction buffer (10 mM Tris-HCl, pH=8, 150 mM NaCl and 1 mM ethylenediaminetetraacetic acid (EDTA)). The enzymatic reaction is performed in 96-well Multiscreen filtration plates in a final volume of 70 μL. Reaction buffer supplemented with fatty acid-free bovine serum albumin (BSA, 1 mg/ml) is used for the enzymatic reaction and the dilution of the compounds and of the anandamide [ethanolamine 1-^3H]. The reaction buffer containing BSA (43 μL/well), the diluted test compounds at different concentrations (7 μL/well containing 1% DMSO) and the membrane preparation (10 μL/well, i.e. 200 μg of tissue per test) are successively added to the wells. After preincubation for 20 minutes of the compounds with the enzyme at 25° C., the reaction is started by adding anandamide [ethanolamine 1-^3H] (specific activity of 15-20 Ci/mmol) diluted with cold anandamide (10 μL/well, final concentration of 10 μM, 0.01 μCi per test). After incubation for 20 minutes at 25° C., the enzymatic reaction is stopped by adding a […] solution of active charcoal prepared in 1.5M NaCl buffer and 0.5 M HCl (50 μL/well). The mixture is stirred for 10 minutes and the aqueous phase containing the ethanolamine [1-^3H] is then recovered by filtration under vacuum and counted by liquid scintillation.

Another series has as its system male OF1 mice. The series can be described thus: Test of analgesia: PBQ-induced abdominal stretching. As to conditions: 30 mg/kg p.o. at 120 minutes. It counts as in vivo, mouse. As to the method: The in vivo activity of the compounds of the invention was evaluated in a test of analgesia.
Thus, the intraperitoneal (i.p.) administration of PBQ (phenylbenzoquinone, 2 mg/kg in 0.9% sodium chloride solution containing 5% ethanol) to male OF1 mice weighing 25 to 30 g causes abdominal stretching, on average 30 torsions or contractions within a period of 5 to 15 minutes after injection. The test compounds are administered orally (p.o.) or intraperitoneally (i.p.) suspended in Tween 80 at 0.5%, 60 minutes or 120 minutes before the administration of PBQ. Under these conditions, the compounds of the invention that are the most powerful reduce by 35% to 80% the number of stretches induced with PBQ, over a dose range of between 1 and 30 mg/kg.

Series [2] deals with T1, enzyme FAAH (Fatty Acid Amide Hydrolase). The experiment in a line: FAAH fluorescent enzymatic test, hydrolysis of AAMC (protocol 2). It counts as biochemical. As to conditions: mouse brain homogenate, AAMC 10 μM, 20 min preincubation at 25° C., 40 min at 37° C., read-out: IC50 (concentration that inhibits 50% of the control enzymatic activity of FAAH). As to the method: as §1
Thus, mouse brains (minus the cerebellum) are withdrawn and stored at −80° C. The brain homogenates are prepared extemporaneously by homogenizing the tissues using a Precellys® machine in reaction buffer (10 mM Tris-HCl, pH=8, 150 mM NaCl and 1 mM ethylenediaminetetraacetic acid (EDTA)). The enzymatic reaction is performed in black polystyrene 384-well plates in a final volume of 50 μL. Reaction buffer supplemented with fatty acid-free bovine serum albumin (BSA, 1 mg/ml) is used for the enzymatic reaction, the dilution of the compounds and the dilution of the AAMC. Reaction buffer containing the BSA (25 μL/well), the diluted test compounds at different concentrations (5 μL/well containing 1% DMSO) and the membrane preparation (10 μL/well, i.e. 200 μg of tissue per test) are successively added to the wells. After preincubation for 20 minutes of the compounds with the enzyme at 25° C., the reaction is started by adding 10 μL of substrate per well (AAMC, final concentration of 10 μM). After incubation for 40 minutes at 37° C., the aminomethyl coumarin (AMC) produced is measured by fluorescent counting (Envision plate reader).

pIC50: −log10 of the molar value.

On to `CCOc1ccc2ccc(O[C@H]3C[C@@H]4CN(C(=O)OCc5nccs5)C[C@@H]4C3)cc2c1` [Compound 3, thiazol-2-ylmethyl (3aR,5s,6aS)-5-[(7-ethoxy-2-naphthyl)oxy]hexahydrocyclopenta[c]pyrrole-2(1H)-carboxylate], for which the pIC50 in series [1] is 8.46.
Usually melting point stands for the temperature of the solid-liquid transition. The compound `O=C(OCc1csnn1)N1C[C@H]2C[C@H](Oc3ccc(Cl)cc3)C[C@H]2C1` [Compound 7, 1,2,3-thiadiazol-4-ylmethyl (3aR,5s,6aS)-5-(4-chlorophenoxy)hexahydrocyclopenta[c]pyrrole-2(1H)-carboxylate] had a melting point of 122 to 124 °C. For the same compound, the pIC50 in series [1] was 7.05.
In the case of `NC(=O)c1cc(COC(=O)N2C[C@H]3C[C@H](Oc4ccc(Cl)cc4)C[C@H]3C2)on1` [Compound 12, (3-carbamoylisoxazol-5-yl)methyl (3aR,5s,6aS)-5-(4-chlorophenoxy)hexahydrocyclopenta[c]pyrrole-2(1H)-carboxylate], the pIC50 in series [1] was 7.72.
Turning to `CCOc1ccc2ccc(OC3CC4CN(C(=O)OCc5nc(C(=O)NC)cs5)CC4C3)cc2c1` [Compound 23, [4-(methylcarbamoyl)thiazol-2-yl]methyl (3aR,5s,6aS)-5-[(7-ethoxy-2-naphthyl)oxy]hexahydrocyclopenta[c]pyrrole-2(1H)-carboxylate], the melting point lay in the range of 149 to 151 °C. Besides, the pIC50 in series [1] is 7.47.
With `CCOc1ccc2ccc(O[C@H]3C[C@@H]4CN(C(=O)OCc5cc(C(N)=O)no5)C[C@@H]4C3)cc2c1` [Compound 24, (3-carbamoylisoxazol-5-yl)methyl (3aR,5s,6aS)-5-[(7-ethoxy-2-naphthyl)oxy]hexahydrocyclopenta[c]pyrrole-2(1H)-carboxylate], the “reduction of the number of stretches induced with PBQ” value in the series on male OF1 mice amounted to 50%.
Consider `CNC(=O)c1cc(COC(=O)N2C[C@H]3C[C@H](Oc4ccc(Cl)c5ccccc45)C[C@H]3C2)on1` [Compound 28, [3-(methylcarbamoyl)isoxazol-5-yl]methyl (3aR,5s,6aS)-5-[(4-chloro-1-naphthyl)oxy]hexahydrocyclopenta[c]pyrrole-2(1H)-carboxylate], for which the melting point was 131 to 133 °C. In addition, the pIC50 in series [1] is 7.92.
`NC(=O)c1cc(COC(=O)N2C[C@H]3C[C@H](Oc4ccc(Cl)c(F)c4)C[C@H]3C2)on1` [Compound 34, (3-carbamoylisoxazol-5-yl)methyl (3aR,5s,6aS)-5-(4-chloro-3-fluorophenoxy)hexahydrocyclopenta[c]pyrrole-2(1H)-carboxylate] had a melting point of 100 to 102 °C. Also, the pIC50 in series [1] was 8.49.
For the compound `CNC(=O)c1cc(COC(=O)N2C[C@H]3C[C@H](Oc4ccc(Cl)c(F)c4)C[C@H]3C2)on1` [Compound 35, [3-(methylcarbamoyl)isoxazol-5-yl]methyl (3aR,5s,6aS)-5-(4-chloro-3-fluorophenoxy)hexahydrocyclopenta[c]pyrrole-2(1H)-carboxylate], in the series on male OF1 mice, the “reduction of the number of stretches induced with PBQ” value is 50%.
In the case of `CN(C)C(=O)c1cc(COC(=O)N2C[C@H]3C[C@H](Oc4ccc(F)cc4)C[C@H]3C2)on1` [Compound 44, (3-dimethylcarbamoylisoxazol-5-yl)methyl (3aR,5s,6aS)-5-(4-fluorophenoxy)hexahydrocyclopenta[c]pyrrole-2(1H)-carboxylate], in series [2], the pIC50 was 8.13.
As for `CNC(=O)c1cc(COC(=O)N2C[C@H]3C[C@H](Oc4ccc(-c5ccc(F)cc5)cc4)C[C@H]3C2)on1` [Compound 45, (3-methylcarbamoylisoxazol-5-yl)methyl (3aR,5s,6aS)-5-[(4′-fluorobiphenyl-4-yl)oxy]hexahydrocyclopenta[c]-pyrrole-2(1H)-carboxylate], the melting point was in the range of 154 to 156 °C. Moreover, in series [2], the pIC50 is 9.33.

The values are drawn from patent publication US8697883B2, “Cyclopenta[C]pyrrole-2-carboxylate derivatives, preparation thereof and therapeutic use thereof” (Sanofi, priority 2009, dated 2014).
